Experiments:
Assay type in all cases: in vivo
[1] = tested on: Kochia (Kochia scoparia); assay: Test A preemergence; conditions: Bassia scoparia, pre-emergence, 240 h, 0 to 100 scale where 0 is no effect and 100 is complete control, read-out: Kochia plant response rating
Method in brief: (§1)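 Each rating is a visual injury score from 0 to 100 given about 10 d after treatment, judged against untreated controls kept alongside in the greenhouse. In loam soil–sand blend, seeds got a preemergence directed soil spray, while postemergence plants were 2 to 10 cm tall at spraying.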

[2] = tested on: barnyardgrass (Echinochloa crus-galli); assay: Test A preemergence; conditions: Echinochloa crus-galli, pre-emergence, 240 h, 0 to 100 scale where 0 is no effect and 100 is complete control, read-out: Barnyardgrass plant response rating
Method in brief: as §1

[3] = tested on: giant foxtail (Setaria faberii); assay: Test A preemergence; conditions: Setaria faberi, pre-emergence, 240 h, 0 to 100 scale where 0 is no effect and 100 is complete control, read-out: Foxtail, Giant plant response rating
Method in brief: as §1

[4] = tested on: pigweed (Amaranthus retroflexus); assay: Test A preemergence; conditions: Amaranthus retroflexus, pre-emergence, 240 h, 0 to 100 scale where 0 is no effect and 100 is complete control, read-out: Pigweed plant response rating
[5] = tested on: ragweed (common ragweed, Ambrosia elatior); assay: Test A preemergence; conditions: Ambrosia artemisiifolia, pre-emergence, 240 h, 0 to 100 scale where 0 is no effect and 100 is complete control, read-out: Ragweed plant response rating
Method in brief: as §1

[6] = tested on: ryegrass, Italian (Italian ryegrass, Lolium multiflorum); assay: Test A preemergence; conditions: Lolium multiflorum, pre-emergence, 240 h, 0 to 100 scale where 0 is no effect and 100 is complete control, read-out: Ryegrass, Italian plant response rating
Method in brief: as §1

[7] = tested on: Galium (catchweed bedstraw, Galium aparine); assay: Test A postemergence; conditions: Galium, post-emergence, 240 h, read-out: Galium plant response rating (0 to 100 scale)
Method in brief: as §1

[8] = tested on: Kochia (Kochia scoparia); assay: Test A postemergence; conditions: Bassia scoparia, post-emergence, 240 h, read-out: Kochia plant response rating (0 to 100 scale)
Method in brief: as §1

[9] = tested on: barnyardgrass (Echinochloa crus-galli); assay: Test A postemergence; conditions: Echinochloa crus-galli, post-emergence, 240 h, read-out: Barnyardgrass plant response rating (0 to 100 scale)
Method in brief: as §1

[10] = tested on: blackgrass (Alopecurus myosuroides); assay: Test A postemergence; conditions: Alopecurus myosuroides, post-emergence, 240 h, read-out: Blackgrass plant response rating (0 to 100 scale)
Method in brief: as §1

[11] = tested on: corn (Zea mays); assay: Test A postemergence; conditions: Zea mays, post-emergence, 240 h, read-out: Corn plant response rating (0 to 100 scale)
Method in brief: as §1

[12] = tested on: giant foxtail (Setaria faberii); assay: Test A postemergence; conditions: Setaria faberi, post-emergence, 240 h, read-out: Foxtail, Giant plant response rating (0 to 100 scale)
Method in brief: as §1

[13] = tested on: pigweed (Amaranthus retroflexus); assay: Test A postemergence; conditions: Amaranthus retroflexus, post-emergence, 240 h, read-out: Pigweed plant response rating (0 to 100 scale)
Method in brief: as §1

[14] = tested on: ragweed (common ragweed, Ambrosia elatior); assay: Test A postemergence; conditions: Ambrosia artemisiifolia, post-emergence, 240 h, read-out: Ragweed plant response rating (0 to 100 scale)
Method in brief: as §1

[15] = tested on: ryegrass, Italian (Italian ryegrass, Lolium multiflorum); assay: Test A postemergence; conditions: Lolium multiflorum, post-emergence, 240 h, read-out: Ryegrass, Italian plant response rating (0 to 100 scale)
Method in brief: as §1

[16] = tested on: wheat (Triticum aestivum); assay: Test A postemergence; conditions: Triticum aestivum, post-emergence, 240 h, Postemergence, 31 g ai/ha; 0 is no effect, 100 is complete control; read-out: Wheat plant response rating (0 to 100 scale)
Method in brief: as §1

[17] = tested on: barnyardgrass (Echinochloa crus-galli); assay: Test B flooded paddy test; conditions: Echinochloa crus-galli, 250 g ai/ha, Flood; 0 to 100 scale where 0 is no effect and 100 is complete control; read-out: Barnyardgrass plant response rating
Method in brief: (§2)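 Compound goes directly into floodwater once pots are flooded 3 cm above soil, targeting plants at two leaves; the water depth is then held for the test duration. Plants sit 13–15 d in a greenhouse and are rated visually, 100 denoting complete control.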

[18] = tested on: ducksalad (Heteranthera limosa); assay: Test B flooded paddy test; conditions: Heteranthera limosa, 250 g ai/ha, Flood; 0 to 100 scale where 0 is no effect and 100 is complete control; read-out: Ducksalad plant response rating
Method in brief: as §2

[19] = tested on: rice (Oryra sativa); assay: Test B flooded paddy test; conditions: Oryza sativa, 250 g ai/ha, Flood; 0 to 100 scale where 0 is no effect and 100 is complete control; read-out: Rice plant response rating
Method in brief: as §2

[20] = tested on: sedge, umbrella (small-flower umbrella sedge, Cyperus difformis); assay: Test B flooded paddy test; conditions: Cyperus difformis, 250 g ai/ha, Flood; 0 to 100 scale where 0 is no effect and 100 is complete control; read-out: Sedge, Umbrella plant response rating
Method in brief: as §2

[21] = 125 g ai/ha, preemergence, visual injury rating, approximately 10 d
[22] = 125 g ai/ha, postemergence, visual injury vs untreated controls after approx. 10 d, 0 = no effect, 100 = complete control
[23] = Postemergence, 31 g ai/ha, 0 is no effect, 100 is complete control

`O=C1NC[C@H](c2ccc(Cl)c(F)c2)[C@H]1C(=O)Nc1cccc(F)c1F` [Compound 1262] was tested, and the pest or weed control at 31 g/ha ([1]; 31 g ai/ha, Preemergence) was 20%, the pest or weed control at 125 g/ha [1, 21] was 60% and the pest or weed control at 31 g/ha ([2]; 31 g ai/ha, Preemergence) was 70%. For the same compound, the pest or weed control at 125 g/ha [2, 21] was 90%, the pest or weed control at 31 g/ha ([3]; 31 g ai/ha, Preemergence) was 90% and the pest or weed control at 125 g/ha [3, 21] was 90%. The pest or weed control at 31 g/ha ([4]; 31 g ai/ha, Preemergence) was 0%, the pest or weed control at 125 g/ha [4, 21] was 50% and the pest or weed control at 31 g/ha ([5]; 31 g ai/ha, Preemergence) was 0%. It also gave a pest or weed control at 125 g/ha [5, 21] of 0%, a pest or weed control at 31 g/ha ([6]; 31 g ai/ha, Preemergence) of 0% and a pest or weed control at 125 g/ha [6, 21] of 0%. For the same compound, the pest or weed control at 125 g/ha [7, 22] was 70%, the pest or weed control at 31 g/ha [7, 23] was 30% and the pest or weed control at 125 g/ha [8, 22] was 50%. For the same compound, the pest or weed control at 31 g/ha [8, 23] was 20%, the pest or weed control at 125 g/ha [9, 22] was 90% and the pest or weed control at 31 g/ha [9, 23] was 70%. The pest or weed control at 125 g/ha [10, 22] was 50%, the pest or weed control at 31 g/ha [10, 23] was 0% and the plant injury at 125 g/ha [11, 22] was 60%. The plant injury at 31 g/ha [11, 23] was 20%, the pest or weed control at 125 g/ha [12, 22] was 80% and the pest or weed control at 31 g/ha [12, 23] was 70%. It also gave a pest or weed control at 125 g/ha [13, 22] of 70%, a pest or weed control at 31 g/ha [13, 23] of 30% and a pest or weed control at 125 g/ha [14, 22] of 30%. For the same compound, the pest or weed control at 31 g/ha [14, 23] was 0%, the pest or weed control at 125 g/ha [15, 22] was 20% and the pest or weed control at 31 g/ha [15, 23] was 0%. The plant injury at 31 g/ha [16] was 0%, the pest or weed control at 250 g/ha [17] was 65% and the pest or weed control at 250 g/ha [18] was 100%. For the same compound, the pest or weed control at 250 g/ha [19] was 10% and the pest or weed control at 250 g/ha [20] was 0%.

From US12077503B2, “Substituted cyclic amides and their use as herbicides” (FMC CORPORATION, priority 2015, dated 2024)
